BindingDB's records for doi:10.1016/S0960-894X(97)00311-9 (n/a, 1997)

Experiment: Inhibition of human platelet aggregation

Row | Compound | IC50
1 | CC(C)[C@H](NC(=O)[C@H](CC(=O)O)NC(=O)C[C@@H]1CCCCN1C(=O)C=Cc1ccc(N=C(N)N)cc1)C(=O)O [(S)-2-[(S)-3-Carboxy-2-(2-{(S)-1-[(E)-3-(4-guanidino-phenyl)-acryloyl]-piperidin-2-yl}-acetylamino)-propionylamino]-3-methyl-butyric acid] | 1600 nM
2 | CC(C)[C@H](NC(=O)[C@H](CC(=O)O)NC(=O)C[C@H]1CCCN1C(=O)C=Cc1ccc(N=C(N)N)cc1)C(=O)O [(S)-2-[(S)-3-Carboxy-2-(2-{(R)-1-[(E)-3-(4-guanidino-phenyl)-acryloyl]-pyrrolidin-2-yl}-acetylamino)-propionylamino]-3-methyl-butyric acid] | 25000 nM
3 | CC(C)[C@H](NC(=O)[C@H](CC(=O)O)NC(=O)CNC(=O)C=Cc1ccc(N=C(N)N)cc1)C(=O)O [(S)-2-((S)-3-Carboxy-2-{2-[(E)-3-(4-guanidino-phenyl)-acryloylamino]-acetylamino}-propionylamino)-3-methyl-butyric acid] | 6600 nM
4 | CC(C)[C@H](NC(=O)[C@H](CC(=O)O)NC(=O)CCN(C)C(=O)C=Cc1ccc(N=C(N)N)cc1)C(=O)O [(S)-2-[(S)-3-Carboxy-2-(3-{[(E)-3-(4-guanidino-phenyl)-acryloyl]-methyl-amino}-propionylamino)-propionylamino]-3-methyl-butyric acid] | 500 nM
5 | CC(C)[C@H](NC(=O)[C@H](CC(=O)O)NC(=O)[C@H]1CCN(C(=O)C=Cc2ccc(N=C(N)N)cc2)C1)C(=O)O [(S)-2-[(S)-3-Carboxy-2-({(S)-1-[(E)-3-(4-guanidino-phenyl)-acryloyl]-pyrrolidine-3-carbonyl}-amino)-propionylamino]-3-methyl-butyric acid] | 3300 nM
6 | CC(C)[C@H](NC(=O)[C@H](CC(=O)O)NC(=O)[C@H]1CCCN(C(=O)C=Cc2ccc(N=C(N)N)cc2)C1)C(=O)O [(S)-2-[(S)-3-Carboxy-2-({(S)-1-[(E)-3-(4-guanidino-phenyl)-acryloyl]-piperidine-3-carbonyl}-amino)-propionylamino]-3-methyl-butyric acid] | 620 nM
7 | CC(C)[C@H](NC(=O)[C@H](CC(=O)O)NC(=O)CCNC(=O)C=Cc1ccc(N=C(N)N)cc1)C(=O)O [(S)-2-((S)-3-Carboxy-2-{3-[(E)-3-(4-guanidino-phenyl)-acryloylamino]-propionylamino}-propionylamino)-3-methyl-butyric acid] | 2000 nM

Now those with a lower IC50, led by results:

Row | IC50 | Compound
8 | 96 nM | CC(C)[C@H](NC(=O)[C@H](CC(=O)O)NC(=O)C[C@@H]1CCCN1C(=O)C=Cc1ccc(N=C(N)N)cc1)C(=O)O [(S)-2-[(S)-3-Carboxy-2-(2-{(S)-1-[(E)-3-(4-guanidino-phenyl)-acryloyl]-pyrrolidin-2-yl}-acetylamino)-propionylamino]-3-methyl-butyric acid]
9 | 410 nM | CCN(CCC(=O)N[C@@H](CC(=O)O)C(=O)N[C@H](C(=O)O)C(C)C)C(=O)C=Cc1ccc(N=C(N)N)cc1 [(S)-2-[(S)-3-Carboxy-2-(3-{ethyl-[(E)-3-(4-guanidino-phenyl)-acryloyl]-amino}-propionylamino)-propionylamino]-3-methyl-butyric acid]
10 | 65 nM | CC(C)[C@H](NC(=O)[C@H](CC(=O)O)NC(=O)[C@@H]1CCN(C(=O)C=Cc2ccc(N=C(N)N)cc2)C1)C(=O)O [(S)-2-[(S)-3-Carboxy-2-({(R)-1-[(E)-3-(4-guanidino-phenyl)-acryloyl]-pyrrolidine-3-carbonyl}-amino)-propionylamino]-3-methyl-butyric acid]
11 | 180 nM | CC(C)[C@H](NC(=O)[C@H](CC(=O)O)NC(=O)[C@@H]1CCCN(C(=O)C=Cc2ccc(N=C(N)N)cc2)C1)C(=O)O [(S)-2-[(S)-3-Carboxy-2-({(R)-1-[(E)-3-(4-guanidino-phenyl)-acryloyl]-piperidine-3-carbonyl}-amino)-propionylamino]-3-methyl-butyric acid]
